Experimental data reported in US4233309A, “Novel 1-substituted-3-acylpyrrole derivatives, platelet aggregation inhibitors containing them, as active ingredients, and processes for production of said derivatives” (Teijin Limited, priority 1977, dated 1980).

Key:
[1] = system: biosynthesis of prostaglandins (microsomes of the seminal vesicle of bovine); assay: Inhibitory effect on prostaglandin biosynthesis in vitro (Table 3); type: biochemical; conditions: 4 μg/ml sodium arachidonate, bioassay on rat fundus stomach strips
Protocol: Sprangue-Dawley rats (male, 180-200 g) were fasted overnight, and killed by blow on the head. The stomach was isolated, and fundus stomach strips were prepared. The smooth muscle strips were perfused with Krebs-Hensleit solution (gassed with 95% O2 +5% CO2 gas) of 37° C. at a rate of […]. The Krebs-Hensleit solution contained 0.1 μg/ml of atropine, 0.1 μg/ml of phenoxybenzamine, 3 μg/ml of propranolol, 0.1 μg/ml of tripelennamine, and 0.2 μg/ml of methylsergide to prevent the effect of smooth muscle contracting substances, and 1 μg/ml of indomethacine to inhibit the biosynthesis of prostaglandin by the smooth muscles. Then, 150 μl of a reaction solution containing biologically synthesized prostaglandin was added to the perfusion solution, and the amount of the biologically synthesized prostaglandin was measured from the contraction of the smooth muscles. The contraction of the smooth muscles was recorded on a recorder using an isotonic transducer.
The reaction solution containing biologically synthesized prostaglandin was prepared in the following manner.
To 0.4 mg/ml of microsomes of the seminal vesicle of bovine were added 5 mM of L-tryptophan, 0.025 μM of bovine hemoglobin and 3 mμ of glutathione as cofactors. The mixture was incubated together with each of the test compounds shown in Table 4 at 37° C. for 2 minutes, and immediately then, 4 μg/ml of sodium arachidonate was added. The mixture was further incubated at 37° C. for 10 minutes, and immediately then, the prostaglandin activity of the reaction solution was measured by bioassay.
The microsomes of the seminal vesicle of bovine had been prepared by suspending microsomes of the seminal vesicle of bovine (a product of Miles Laboratories, Inc.) in a 50 mM Tris.HCl buffer (pH 7.4) using a glass homogenizer, and stored in ice water prior to use.
ID50 denotes the concentration of each test compound required to inhibit the biosynthesis of prostaglandins by 50%.

[2] = system: carrageenan edema; assay: Antiinflammatory activity (carrageenan edema of rat paw, Table 5); type: in vivo, Sprangue-Dawley (SD) male rats; conditions: 100 mg/kg orally, 3 h after 1% carrageenan
Protocol: Sprangue-Dawley (SD) male rats with a body weight of 160 to 180 g, four in each group, were used. The volume of the left leg was measured, and each of the test compounds shown in Table 5 (100 mg/kg dissolved in polyethylene glycol so as to provide a volume of 2 ml/kg) was orally administered. One hour later, 0.1 ml of 1% carrageenan (dissolved in physiological saline) as an inflammation-inducing substance was subcutaneously injected to the paw of the left hind leg. A control group was orally administered with 2 ml/kg of polyethylene glycol. As a positive control, 25 mg/kg of Ibprofen was similarly administered. Three hours after the injection of 1% carrageenan, the volume of the left leg was measured, and the ratio of edema was calculated from the volume before the administration of the carrageenan. The percent inhibition of edema in comparison with the control group was determined.

Cc1cc(C(=O)c2ccccc2)c(C)n1CC(C)O (centres unmarked) [Compound 102, 2-(3-benzoyl-2,5-dimethylpyrrol-1-yl)-1-methylethanol]
ID50 (concentration required to inhibit the biosynthesis of prostaglandins by 50%) [1]: 11.9 µg/mL | Percent inhibition of edema [2]: 8%
